Measured values as given in ChEMBL document CHEMBL2440076, “New triarylpyrazoles as broad-spectrum anticancer agents: design, synthesis, and biological evaluation” (Eur J Med Chem, 2013).
pIC50: −log10 of the molar value.

Assays:
[1] = test system: MCF7; assay: Growth inhibition of human MCF7 cells assessed as cell growth at 10 uM after 48 hrs by sulforhodamine B assay; assay type: functional; conditions: MCF7, 48 h, read-out: Activity
[2] = test system: HCT-116; assay: Growth inhibition of human HCT116 cells after 48 hrs by sulforhodamine B assay; assay type: functional; conditions: HCT-116, 48 h
[3] = test system: NCI-H460; assay: Growth inhibition of human NCI-H460 cells after 48 hrs by sulforhodamine B assay; assay type: functional; conditions: NCI-H460, 48 h
[4] = test system: NCI-H322M; assay: Growth inhibition of human NCI-H322M cells after 48 hrs by sulforhodamine B assay; assay type: functional
[5] = test system: NCI-H226; assay: Growth inhibition of human NCI-H226 cells after 48 hrs by sulforhodamine B assay; assay type: functional; conditions: NCI-H226, 48 h
[6] = test system: HOP-92; assay: Growth inhibition of human HOP92 cells after 48 hrs by sulforhodamine B assay; assay type: functional, cell-based; conditions: HOP-92, 48 h
[7] = test system: A549; assay: Growth inhibition of human A549/ATCC cells after 48 hrs by sulforhodamine B assay; assay type: functional; conditions: A549, 48 h
[8] = test system: MOLT-4; assay: Growth inhibition of human MOLT4 cells after 48 hrs by sulforhodamine B assay; assay type: functional; conditions: MOLT-4, 48 h
[9] = test system: RXF 393; assay: Growth inhibition of human RXF393 cells assessed as cell growth at 10 uM after 48 hrs by sulforhodamine B assay; assay type: functional; conditions: RXF 393, 48 h, read-out: Activity
[10] = Growth inhibition of human NCI-ADR-RES cells assessed as cell growth at 10 uM after 48 hrs by sulforhodamine B assay; assay type: functional; conditions: read-out: Activity
[11] = test system: OVCAR-3; assay: Growth inhibition of human OVCAR3 cells assessed as cell growth at 10 uM after 48 hrs by sulforhodamine B assay; assay type: functional; conditions: OVCAR-3, 48 h, read-out: Activity
[12] = test system: IGROV-1; assay: Growth inhibition of human IGROV1 cells assessed as cell growth at 10 uM after 48 hrs by sulforhodamine B assay; assay type: functional; conditions: IGROV-1, 48 h, read-out: Activity
[13] = test system: UACC-257; assay: Growth inhibition of human UACC257 cells assessed as cell growth at 10 uM after 48 hrs by sulforhodamine B assay; assay type: functional; conditions: UACC-257, 48 h, read-out: Activity
[14] = test system: LOX IMVI; assay: Growth inhibition of human LOXIMVI cells assessed as cell growth at 10 uM after 48 hrs by sulforhodamine B assay; assay type: functional; conditions: read-out: Activity
[15] = test system: SF-539; assay: Growth inhibition of human SF539 cells assessed as cell growth at 10 uM after 48 hrs by sulforhodamine B assay; assay type: functional; conditions: SF-539, 48 h, read-out: Activity
[16] = test system: HCT-15; assay: Growth inhibition of human HCT15 cells assessed as cell growth at 10 uM after 48 hrs by sulforhodamine B assay; assay type: functional; conditions: HCT-15, 48 h, read-out: Activity
[17] = test system: HCT-116; assay: Growth inhibition of human HCT116 cells assessed as cell growth at 10 uM after 48 hrs by sulforhodamine B assay; assay type: functional; conditions: HCT-116, 48 h, read-out: Activity
[18] = Growth inhibition of human HCC2998 cells assessed as cell growth at 10 uM after 48 hrs by sulforhodamine B assay; assay type: functional; conditions: HCC 2998, 48 h, read-out: Activity
[19] = test system: COLO 205; assay: Growth inhibition of human COLO205 cells assessed as cell growth at 10 uM after 48 hrs by sulforhodamine B assay; assay type: functional; conditions: COLO 205, 48 h, read-out: Activity
[20] = test system: NCI-H522; assay: Growth inhibition of human NCI-H522 cells assessed as cell growth at 10 uM after 48 hrs by sulforhodamine B assay; assay type: functional; conditions: NCI-H522, 48 h, read-out: Activity
[21] = test system: NCI-H460; assay: Growth inhibition of human NCI-H460 cells assessed as cell growth at 10 uM after 48 hrs by sulforhodamine B assay; assay type: functional; conditions: NCI-H460, 48 h, read-out: Activity
[22] = test system: NCI-H226; assay: Growth inhibition of human NCI-H226 cells assessed as cell growth at 10 uM after 48 hrs by sulforhodamine B assay; assay type: functional; conditions: NCI-H226, 48 h, read-out: Activity
[23] = Growth inhibition of human Hs 578T cells after 48 hrs by sulforhodamine B assay; assay type: functional
[24] = test system: DU-145; assay: Growth inhibition of human DU145 cells after 48 hrs by sulforhodamine B assay; assay type: functional; conditions: DU-145, 48 h
[25] = test system: PC-3; assay: Growth inhibition of human PC3 cells after 48 hrs by sulforhodamine B assay; assay type: functional, cell-based; conditions: PC-3, 48 h
[26] = test system: SN12C; assay: Growth inhibition of human SN12C cells after 48 hrs by sulforhodamine B assay; assay type: functional
[27] = test system: SK-OV-3; assay: Growth inhibition of human SKOV3 cells after 48 hrs by sulforhodamine B assay; assay type: functional; conditions: SK-OV-3, 48 h
[28] = Growth inhibition of human NCI-ADR-RES cells after 48 hrs by sulforhodamine B assay; assay type: functional
[29] = test system: OVCAR-3; assay: Growth inhibition of human OVCAR3 cells after 48 hrs by sulforhodamine B assay; assay type: functional, cell-based; conditions: OVCAR-3, 48 h
[30] = test system: Malme-3M; assay: Growth inhibition of human MALME-3M cells after 48 hrs by sulforhodamine B assay; assay type: functional
[31] = test system: SF-268; assay: Growth inhibition of human SF268 cells after 48 hrs by sulforhodamine B assay; assay type: functional; conditions: SF-268, 48 h
[32] = test system: MOLT-4; assay: Growth inhibition of human MOLT4 cells assessed as cell growth at 10 uM after 48 hrs by sulforhodamine B assay; assay type: functional; conditions: MOLT-4, 48 h, read-out: Activity
[33] = test system: CCRF-CEM; assay: Growth inhibition of human CCRF-CEM cells assessed as cell growth at 10 uM after 48 hrs by sulforhodamine B assay; assay type: functional; conditions: read-out: Activity
[34] = test system: HL-60(TB); assay: Growth inhibition of human HL-60(TB) cells assessed as cell growth at 10 uM after 48 hrs by sulforhodamine B assay; assay type: functional; conditions: HL-60, 48 h, read-out: Activity
[35] = read-out: LC50 (the source's name)

With `COc1cc(-c2nn(-c3cccc(NC(=O)c4ccccc4)c3)cc2-c2ccncc2)ccc1Cl` the growth at 10 µM [1] was 4.67%, the GI50 [2] was 0.5 µM and the TGI [2] was > 100 µM. The CC50 [2, 35] was > 100 µM, the GI50 [3] was 0.394 µM and the LC50 [3] was > 100 µM. For the same compound, the TGI [3] was > 100 µM, the GI50 [4] was 4.59 µM and the TGI [4] was > 100 µM. The CC50 [4, 35] was > 100 µM, the GI50 [5] was 2.35 µM and the TGI [5] was > 100 µM. The CC50 [5, 35] was > 100 µM, the GI50 [6] was 0.324 µM and the pIC50 [6] was 6.49. The LC50 [6] was > 100 µM, the TGI [6] was 4.71 µM and the GI50 [7] was 0.585 µM. The LC50 (concentration killing 50% of starting cells) [7] was > 100 µM, the TGI [7] was > 100 µM and the GI50 [8] was 0.701 µM. For the same compound, the TGI [8] was > 100 µM, the CC50 [8, 35] was > 100 µM and the growth at 10 µM [9] was -19.2%. For the same compound, the growth at 10 µM [10] was 0.34%, the growth at 10 µM [11] was 0.02% and the growth at 10 µM [12] was 47.4%. The growth at 10 µM [13] was 8.64%, the growth at 10 µM [14] was 17.4% and the growth at 10 µM [15] was -15%. For the same compound, the growth at 10 µM [16] was 19.2%, the growth at 10 µM [17] was 8.58% and the growth at 10 µM [18] was 20.1%. It also gave a growth at 10 µM [19] of 2.21%, a growth at 10 µM [20] of -29.6% and a growth at 10 µM [21] of 2.74%. The growth at 10 µM [22] was 39.1%, the GI50 [23] was 1.11 µM and the TGI [23] was > 100 µM. The CC50 [23, 35] was > 100 µM, the GI50 [24] was 0.78 µM and the LC50 [24] was > 100 µM. The TGI [24] was 54.7 µM, the GI50 [25] was 0.426 µM and the pIC50 [25] was 6.37. For the same compound, the TGI [25] was > 100 µM, the CC50 [25, 35] was > 100 µM and the GI50 [26] was 2.95 µM. The TGI [26] was > 100 µM, the CC50 [26, 35] was > 100 µM and the GI50 [27] was 1.07 µM. For the same compound, the TGI [27] was > 100 µM, the CC50 [27, 35] was > 100 µM and the GI50 [28] was 0.448 µM. For the same compound, the TGI [28] was > 100 µM, the CC50 [28, 35] was > 100 µM and the GI50 [29] was 0.334 µM. It also gave a pIC50 [29] of 6.48, a TGI [29] of 10.9 µM and a CC50 [29, 35] of 95.8 µM. The GI50 [30] was 0.537 µM, the LC50 (concentration killing 50% of starting cells) [30] was > 100 µM and the TGI [30] was > 100 µM. The GI50 [31] was 0.859 µM, the TGI [31] was > 100 µM and the CC50 [31, 35] was > 100 µM. The growth at 10 µM [32] was 0.66%, the growth at 10 µM [33] was 2.06% and the growth at 10 µM [34] was -18.8%.
